Assay results as given in ChEMBL document CHEMBL1137255, “HIV-1 protease mutations and inhibitor modifications monitored on a series of complexes. Structural basis for the effect of the A71V mutation on the active site” (J Med Chem, 2006).

Legend:
[1] = target: T1, Human immunodeficiency virus type 1 protease (Human immunodeficiency virus 1, UniProt Q72874); experiment: Inhibition of wild type HIV1 protease
[2] = target: T1, Human immunodeficiency virus type 1 protease; experiment: Inhibition of HIV1 protease I8 mutant

Q: Which Ki [1] does the source give for CC(C)(C)OC(=O)N[C@@H](Cc1ccccc1)[C@@H](O)CN[C@@H](Cc1ccccc1)C(=O)N[C@@H](CCC(N)=O)C(=O)N[C@@H](Cc1ccccc1)C(N)=O here?
A: The Ki was 33 nM.

Q: What about the Ki [2] of the same compound?
A: The Ki was 1000 nM.

Q: Which Ki [1] does the source give for CC(C)(C)OC(=O)N[C@@H](Cc1ccccc1)[C@@H](O)CN[C@@H](Cc1ccccc1)C(=O)N[C@@H](CCC(=O)O)C(=O)N[C@@H](Cc1ccccc1)C(N)=O here?
A: The Ki was 0.15 nM.

Q: What about the Ki [2] of the same compound?
A: Its Ki is 86 nM.

Q: For CC(C)(C)OC(=O)N[C@@H](Cc1ccccc1)[C@@H](O)C[C@@H](Cc1ccccc1)C(=O)N[C@@H](CCC(N)=O)C(=O)N[C@@H](Cc1ccccc1)C(N)=O, which Ki [1] is on record?
A: The Ki was 0.02 nM.

Q: And the Ki [2]?
A: The Ki was 0.26 nM.
